The source of these data is ChEMBL document CHEMBL1201862, “PubChem BioAssay data set” (2004).

Among the test systems are HOP-92; TK-10; LOX IMVI; SW-620; U-251; SF-268; RPMI-8226; HCT-116; MDA-MB-435; NCI-H460; HT-29; UACC-257; HOP-62; OVCAR-8; NCI/ADR-RES; SK-MEL-28; A549; SK-OV-3; Hs-578T; UO-31.
Test in all cases: NCI-60 cell line screen, 48 h

Each structure is given as a SMILES string.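 Values below derive from 48-hour exposures of cells grown in 96-well plates, with endpoints linearly interpolated between the two concentrations bracketing the appropriate inhibition level. The concentration for 50% growth inhibition is given as GI50.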 The source made the active and inactive calls. No stated cut-off is given here; in the data, active = GI50 up to about 1.1 µM and inactive = higher.

`CN(C)c1ccc(/C=C(\NC(=O)c2ccccc2)C(=O)Nc2ccccc2C(=O)NCc2ccccc2)cc1`: the GI50 in the test on HOP-92 is > 100 µM (inactive); in the test with TK-10, > 100 µM (inactive); in the test with LOX IMVI, > 100 µM (inactive); in the test with SW-620, > 100 µM (inactive); in the test with U-251, 46.8 µM (inactive); in the test on SF-268, > 100 µM (inactive). In addition, the GI50 in the test with RPMI-8226 is 67.5 µM (inactive); in the test with HCT-116 it was > 100 µM (inactive); in the test on MDA-MB-435 it was > 100 µM (inactive); in the test with NCI-H460 it was > 100 µM (inactive); in the test with HT-29, > 100 µM (inactive); in the test on UACC-257, 36.1 µM (inactive). For the same compound, the GI50 in the test with HOP-62 was 31.4 µM (inactive); in the test on OVCAR-8, 59.4 µM (inactive); in the test with NCI/ADR-RES, 43.1 µM (inactive); with SK-MEL-28, > 100 µM (inactive); in the test on A549 it was > 100 µM (inactive); with SK-OV-3, > 100 µM (inactive). Also, the GI50 with Hs-578T and in the test with UO-31 was > 100 µM (inactive) throughout.
For `CCC(C)OC(=O)/C(Br)=C1/OC(=O)c2ccccc2-c2ccccc21` (stereo not given), the GI50 in the test with HOP-92 is 27.3 µM (inactive); in the test on TK-10, 19.4 µM (inactive); in the test with LOX IMVI it was 18.2 µM (inactive); with SW-620, 18.1 µM (inactive); in the test on U-251 it was > 10 µM (inactive); with SF-268 it was 56.4 µM (inactive). Besides, the GI50 with RPMI-8226 was 22.3 µM (inactive); with HCT-116, 17.6 µM (inactive); with MDA-MB-435 it was 26.9 µM (inactive); in the test with NCI-H460, 26.2 µM (inactive); in the test on HT-29, 23.2 µM (inactive); in the test with UACC-257 it was 88.7 µM (inactive). For the same compound, the GI50 with HOP-62 is 15.9 µM (inactive); with OVCAR-8, 37.6 µM (inactive); with NCI/ADR-RES, 20.4 µM (inactive); in the test on SK-MEL-28 it was 30.1 µM (inactive); in the test on A549 it was 36.6 µM (inactive); with SK-OV-3, 45.6 µM (inactive). In addition, the GI50 in the test on Hs-578T is 45.4 µM (inactive); in the test with UO-31, 25.2 µM (inactive).
Turning to `COc1cc(C2c3cc4c(cc3OC(NCCc3ccccc3)C2C)OCO4)cc(OC)c1OC` (stereo not given), the GI50 in the test with HOP-92 is 4.67 µM (inactive); in the test on TK-10, 26.5 µM (inactive); with LOX IMVI, 0.497 µM (active); in the test with SW-620, 0.316 µM (active); in the test with U-251, 0.348 µM (active); in the test with SF-268 it was 0.736 µM (active). For the same compound, the GI50 is 0.319 µM (active) with RPMI-8226; 0.409 µM (active) with HCT-116; 0.111 µM (active) in the test on MDA-MB-435; 0.418 µM (active) in the test on NCI-H460; 0.321 µM (active) in the test with HT-29; 6.34 µM (inactive) in the test with UACC-257. Moreover, the GI50 in the test with HOP-62 is 0.614 µM (active); in the test with OVCAR-8 it was 0.441 µM (active); with NCI/ADR-RES it was 0.31 µM (active); in the test with SK-MEL-28, 18.3 µM (inactive); in the test on A549, 0.452 µM (active); in the test on SK-OV-3 it was 0.397 µM (active). The GI50 in the test with Hs-578T is 0.138 µM (active); with UO-31 it was 0.457 µM (active).
As for `COC(=O)[C@@H](NC(=O)N(Cc1ccccc1)C[C@H](CC(C)C)NC(=O)[C@@H](NC(=O)OC(C)(C)C)C(C)C)C(C)C`, the GI50 with HOP-92, in the test on TK-10, with LOX IMVI, in the test with SW-620, with U-251 and in the test with SF-268 was > 100 µM (inactive) each time. Besides, the GI50 in the test on RPMI-8226, in the test with HCT-116, in the test with MDA-MB-435, in the test on NCI-H460, in the test with HT-29 and in the test with UACC-257 was > 100 µM (inactive) throughout. Besides, the GI50 in the test on HOP-62, with OVCAR-8, in the test with NCI/ADR-RES, in the test on SK-MEL-28, with A549 and in the test on SK-OV-3 was > 100 µM (inactive) in each case. Further, the results for the GI50 with Hs-578T and with UO-31 were 88.1 µM (inactive) and > 100 µM (inactive), respectively.
`COc1ccc(CNc2nc3ccccc3nc2-c2cccs2)cc1`: the GI50 in the test on HOP-92 is 16.6 µM (inactive); in the test on TK-10, 94.2 µM (inactive); with LOX IMVI, 12.2 µM (inactive); with SW-620, 51.9 µM (inactive); in the test with U-251 it was 28.8 µM (inactive); in the test on SF-268 it was > 100 µM (inactive). The GI50 in the test on RPMI-8226 was 21.5 µM (inactive); in the test with HCT-116, 26.7 µM (inactive); with MDA-MB-435, 27.4 µM (inactive); in the test with NCI-H460 it was 24.2 µM (inactive); with HT-29 it was 18.9 µM (inactive); with UACC-257 it was 31.2 µM (inactive). The GI50 was > 100 µM (inactive) in the test with HOP-62; 28.9 µM (inactive) with OVCAR-8; 17.4 µM (inactive) in the test with NCI/ADR-RES; > 100 µM (inactive) in the test with SK-MEL-28; 33.1 µM (inactive) in the test with A549; 43.4 µM (inactive) in the test with SK-OV-3. For the same compound, the results for the GI50 in the test on Hs-578T and in the test on UO-31 were 23.4 µM (inactive) and 15.4 µM (inactive), respectively.
`C=CCN1C(=O)/C(=C/c2ccc(C)cc2)NC1=S`: the GI50 was 59.3 µM (inactive) in the test on HOP-92; > 100 µM (inactive) in the test on TK-10; 63.2 µM (inactive) in the test with LOX IMVI; > 100 µM (inactive) with SW-620; > 100 µM (inactive) in the test on U-251; > 100 µM (inactive) in the test on SF-268. Besides, the GI50 in the test with RPMI-8226 is 39.4 µM (inactive); in the test on HCT-116, > 100 µM (inactive); in the test with MDA-MB-435 it was 76.6 µM (inactive); in the test with NCI-H460, > 100 µM (inactive); in the test with HT-29, 96.6 µM (inactive); in the test with UACC-257, 43.6 µM (inactive). Besides, the GI50 is > 100 µM (inactive) in the test with HOP-62; > 100 µM (inactive) in the test on OVCAR-8; 81.7 µM (inactive) in the test with NCI/ADR-RES; > 100 µM (inactive) with SK-MEL-28; 76.4 µM (inactive) in the test on A549; > 100 µM (inactive) in the test with SK-OV-3. Further, the GI50 in the test with Hs-578T and in the test with UO-31 was > 100 µM (inactive) each time.
On to `CCC1(OC(=O)CNC)C(=O)OCc2c1cc1n(c2=O)Cc2cc3ccccc3nc2-1` (stereo not given), for which the GI50 in the test on HOP-92 is 0.0491 µM (active); in the test with TK-10, 1.29 µM (inactive); with LOX IMVI, < 0.01 µM (active); in the test with SW-620 it was < 0.01 µM (active); in the test on U-251 it was < 0.01 µM (active); with SF-268, < 0.01 µM (active). For the same compound, the GI50 with RPMI-8226 is < 0.0137 µM (active); in the test on HCT-116 it was 0.015 µM (active); with MDA-MB-435, 0.0234 µM (active); in the test with NCI-H460 it was < 0.01 µM (active); in the test on HT-29, 0.0335 µM (active); in the test with UACC-257, 0.0393 µM (active). Further, the GI50 in the test on HOP-62 was < 0.01 µM (active); in the test on OVCAR-8, 0.0126 µM (active); with NCI/ADR-RES, < 0.01 µM (active); in the test on SK-MEL-28 it was 0.213 µM (active); with A549, < 0.01 µM (active); in the test on SK-OV-3, < 0.01 µM (active). In addition, the GI50 was 0.403 µM (active) with Hs-578T and < 0.0125 µM (active) in the test on UO-31.
With `Oc1cc(O)c2c(c1)OC(c1ccc(O)c(O)c1)C(O)C2c1c(O)cc(O)c2c1OC(c1ccc(O)c(O)c1)C(O)C2` (stereo not given), the GI50 with HOP-92 was > 100 µM (inactive); with TK-10, > 100 µM (inactive); in the test on LOX IMVI, > 100 µM (inactive); with SW-620 it was 45.4 µM (inactive); with U-251, > 100 µM (inactive); in the test with SF-268, > 100 µM (inactive). In addition, the GI50 in the test with RPMI-8226 is > 100 µM (inactive); in the test with HCT-116, > 100 µM (inactive); in the test with MDA-MB-435, > 100 µM (inactive); with NCI-H460, 85.1 µM (inactive); in the test on HT-29, > 100 µM (inactive); in the test with UACC-257, > 100 µM (inactive). Also, the GI50 in the test with HOP-62, in the test with OVCAR-8, in the test with NCI/ADR-RES, in the test with SK-MEL-28, in the test on A549 and in the test on SK-OV-3 was > 100 µM (inactive) each time. For the same compound, the GI50 in the test on Hs-578T and in the test on UO-31 was > 100 µM (inactive) each time.
`CC1=NN(c2nc(N)nc(CN3CCOCC3)n2)C(C)(C)C1`: the GI50 with HOP-92 is 33.2 µM (inactive); with TK-10 it was > 100 µM (inactive); with LOX IMVI, 14.9 µM (inactive); in the test with SW-620, > 100 µM (inactive); in the test on U-251, > 100 µM (inactive); with SF-268, > 100 µM (inactive). For the same compound, the GI50 in the test with RPMI-8226, with HCT-116, with MDA-MB-435, with NCI-H460, in the test with HT-29 and with UACC-257 was > 100 µM (inactive) each time. The GI50 is 46.2 µM (inactive) in the test with HOP-62; > 100 µM (inactive) in the test on OVCAR-8; > 100 µM (inactive) in the test with NCI/ADR-RES; > 100 µM (inactive) in the test on SK-MEL-28; > 100 µM (inactive) in the test on A549; > 100 µM (inactive) in the test with SK-OV-3. Moreover, the GI50 is > 100 µM (inactive) in the test with Hs-578T and 18.1 µM (inactive) in the test with UO-31.
`Brc1ccc(-c2ccc(-c3ccc(Br)s3)s2)s1`: the GI50 in the test on HOP-92, in the test on TK-10, in the test with LOX IMVI, in the test on SW-620, with U-251 and with SF-268 was > 100 µM (inactive) each time. Also, the GI50 in the test with RPMI-8226, in the test on HCT-116, in the test with MDA-MB-435, with NCI-H460, with HT-29 and in the test with UACC-257 was > 100 µM (inactive) throughout. The GI50 in the test with HOP-62, in the test with OVCAR-8, with NCI/ADR-RES, in the test on SK-MEL-28, in the test with A549 and in the test with SK-OV-3 was > 100 µM (inactive) throughout. Moreover, the GI50 in the test on Hs-578T and with UO-31 was > 100 µM (inactive) in each case.
